In patent US6673039B1, “Compositions, kits, methods, and apparatus for transvascular delivery of a composition to an extravascular tissue of a mammal” (Trustees of the University of Pennsylvania, priority 1997, dated 2004):

Tested on: skeletal muscle capillaries
Assay: Microvascular perfusion viewed in real time through a dissecting microscope after topical application
Assay type: in vivo, mouse
Description: Newborn mice pups were anesthetized after feeding to ensure a stomach filled with milk, for the purpose of providing optical contrast. […] Histamine, papaverine, or both, dissolved in PBS, were applied topically to the capillaries. Video recordings were made against a time line with an attached camera.

Row | Structure (SMILES) | effect on microvascular perfusion (10 millimolar) | effect on microvascular perfusion (300 micrograms per milliliter)
1 | NCCc1c[nH]cn1 [histamine] | rapidly induced vasodilation, and was followed within seconds by progressive capillary stasis | 
2 | COc1ccc(Cc2nccc3cc(OC)c(OC)cc23)cc1OC [papaverine] |  | capillary recruitment and increased local perfusion
